Data reported in patent US20240148821A1, “PHARMACEUTICAL USE OF CYCLIC PEPTIDE COMPOUND” (CHUGAI SEIYAKU KABUSHIKI KAISHA, priority 2021, published 2024).
Numbered stars: 1 amine (or outer) side, 2 acyl side, 3 side chain; on linkers, the order of the positions; unused ones are H or OH. Bridge positions count the residues as written; N and C are the ends. Square brackets hold non-standard residues; d marks the D form. Peptide text beside a SMILES is read from it. * marks the point of attachment. hPhe(3-Cl-4-CF3) = N[C@@H](CCc1ccc(C(F)(F)F)c(Cl)c1)C(=O)O; hPhe(3-F,4-CF3) = N[C@@H](CCc1ccc(C(F)(F)F)c(F)c1)C(=O)O; NMePhe(4-CF3) = CN[C@@H](Cc1ccc(C(F)(F)F)cc1)C(=O)O; X24 = COc1cncc(C[C@@H](C(=O)[*:2])N(C)[*:1])c1; Phe(4-CHF2) = N[C@@H](Cc1ccc(C(F)F)cc1)C(=O)O; NEtPhe(4-Me) = CCN[C@@H](Cc1ccc(C)cc1)C(=O)O; NMePhe(4-Me) = CN[C@@H](Cc1ccc(C)cc1)C(=O)O; NMedβ3hAla = C[C@H](CC(=O)[*:2])N(C)[*:1]; NMeGly(cPent) = CN[C@H](C(=O)O)C1CCCC1; NMeCha = CN[C@@H](CC1CCCCC1)C(=O)O; Hyp = O=C(O)[C@@H]1C[C@@H](O)CN1; NMeChg = CN[C@H](C(=O)O)C1CCCCC1; NMeI = CC[C@H](C)[C@H](NC)C(=O)O; NMeT = CN[C@H](C(=O)O)[C@@H](C)O; NMeD = CN[C@@H](CC(=O)O)C(=O)O; NMeL = CN[C@@H](CC(C)C)C(=O)O; NMeV = CN[C@H](C(=O)O)C(C)C; NMeS = CN[C@@H](CO)C(=O)O; Morpholide = C1CN(*)CCO1; NMeA = CN[C@@H](C)C(=O)O; NMeAib = CNC(C)(C)C(=O)O; Piperidide = C1CCN(*)CC1; Pyrrolidide = C1CCN(*)C1; Ac5c = NC1(C(=O)O)CCCC1; Aze = O=C(O)[C@@H]1CCN1; NBuGly = CCCCNCC(=O)O; Sar = CNCC(=O)O; Propyl = CCC*

Columns and labels:
[1] = biological target: protein-protein interaction between Kras and SOS1 (biotin-tagged human Kras loaded with GDP, His-tagged human SOS1) (Homo sapiens (Human), UniProt P01116, G12D); assay: Protein-protein interaction inhibition between Kras and SOS1 (KrasG12D-SOS PPI) using AlphaScreen; assay type: biochemical; settings: AlphaScreen; biotin-tagged human Kras loaded with GDP, His-tagged human SOS1; read-out: KRAS G12D-SOS PPI IC50;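 also: kras produced in E. coli, Ni-coupled donor beads and streptavidin acceptor beads, excitation 680 nm with emission detected at 520–620 nm via singlet oxygen transfer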
[2] = test system: Human pancreatic cancer cell line AsPC-1 (G12D mutation Kras); assay: AsPC-1 cell growth inhibition (AsPC-1 CGI); assay type: cell-based; settings: read-out: AsPC-1 cell growth inhibition, 50% growth inhibitory concentration (IC50 value); 96 hours, CellTiter-Glo, values classified in ranges
Experimental: Test compounds were serially dilated with dimethyl sulfoxide, and 200 nL was then dispensed to a U-bottom 96-well plate using Labcyte Echo. […] The cell suspension was dispensed to a. plate containing a test compound at 100 μL per well and incubated at 37° C. in a 5% carbon dioxide gas incubator. 96 hours later, 80 μL of CellTiter-Glo (Promega) was added to each well and fluorescence was measured.

Row | SMILES | IC50 [1] [nM] | IC50 [2] [nM]
1 | CCCOC[C@H]1C(=O)N(C)CC(=O)N[C@@H](CCc2ccc(C(F)(F)F)c(Cl)c2)C(=O)N2CCC[C@H]2C(=O)NC2(CCCC2)C(=O)N(C)[C@@H](C2CCCC2)C(=O)N(C)[C@H](C(=O)N2CCCC2)CC(=O)N(C)[C@@H](CC(C)C)C(=O)N[C@@H]([C@@H](C)CC)C(=O)N(C)[C@@H](C)C(=O)N2CC[C@H]2C(=O)N1C [Compound 836] ([NMeL]I[NMeA][Aze][NMeS](Propyl)[Sar][hPhe(3-Cl-4-CF3)]P[Ac5c][NMeGly(cPent)][NMeD]-Pyrrolidide; lactam N-11) | 0.66 | ≤ 20
2 | CC[C@H](C)[C@@H]1NC(=O)[C@H](CC(C)C)N(C)C(=O)C[C@@H](C(=O)N(C)C)N(C)C(=O)[C@H]([C@@H](C)CC)N(C)C(=O)C2(CCCC2)NC(=O)[C@@H]2CCCN2C(=O)[C@H](CCc2ccc(C(F)(F)F)c(Cl)c2)NC(=O)CN(C)C(=O)[C@H](Cc2ccc(C)cc2)N(C)C(=O)[C@@H]2CCN2C(=O)[C@H](C)NC1=O [Compound 840] ([NMeL]IA[Aze][NMePhe(4-Me)][Sar][hPhe(3-Cl-4-CF3)]P[Ac5c][NMeI][NMeD]-NMe2; lactam N-11) | 1.2 | ≤ 20
3 | CC[C@H](C)[C@@H]1NC(=O)[C@H](C)N(C)C(=O)C[C@@H](C)N(C)C(=O)[C@H](CC(C)C)NC(=O)C(C)(C)N(C)C(=O)[C@H](CC(C)C)NC(=O)[C@H](CCc2ccc(C(F)(F)F)c(F)c2)NC(=O)CN(C)C(=O)[C@H](CC2CCCCC2)N(C)C(=O)CN(C)C(=O)CN(C)C1=O [Compound 842] (cyclo(I[Sar][Sar][NMeCha][Sar][hPhe(3-F,4-CF3)]L[NMeAib]L[NMedβ3hAla][NMeA])) | 43 | > 500
4 | CCCCN1CC(=O)NC2(CCCC2)C(=O)N(C)[C@@H](C2CCCCC2)C(=O)N(C)[C@H](C(=O)N2CCCCC2)CC(=O)N(C)[C@@H](CC(C)C)C(=O)N[C@@H]([C@@H](C)CC)C(=O)N(C)CC(=O)N(C)CC(=O)N(C)[C@@H](CC2CCCCC2)C(=O)N(C)CC(=O)N[C@@H](CCc2ccc(C(F)(F)F)c(Cl)c2)C1=O [Compound 848] ([NMeL]I[Sar][Sar][NMeCha][Sar][hPhe(3-Cl-4-CF3)][NBuGly][Ac5c][NMeChg][NMeD]-Piperidide; lactam N-11) | 16 | > 500
5 | CC[C@H](C)[C@@H]1NC(=O)[C@H](CC(C)C)N(C)C(=O)C[C@@H](C)N(C)C(=O)[C@H](CC(C)C)NC(=O)C(C)(C)N(C)C(=O)[C@H](Cc2ccc(C(F)F)cc2)NC(=O)[C@H](CCc2ccc(C(F)(F)F)c(F)c2)NC(=O)CN(C)C(=O)[C@H](CC2CCCCC2)N(C)C(=O)CN(C)C(=O)CN(C)C1=O [Compound 858] (cyclo(I[Sar][Sar][NMeCha][Sar][hPhe(3-F,4-CF3)][Phe(4-CHF2)][NMeAib]L[NMedβ3hAla][NMeL])) | 330 | > 500
6 | CC[C@H](C)[C@@H]1NC(=O)[C@H](CC(C)C)N(C)C(=O)C[C@@H](C(=O)N2CCCCC2)N(C)C(=O)[C@H](C(C)C)N(C)C(=O)C2(CCCC2)NC(=O)[C@@H]2CCCN2C(=O)[C@H](CCc2ccc(C(F)(F)F)c(Cl)c2)NC(=O)CN(C)C(=O)[C@H]([C@@H](C)O)N(C)C(=O)[C@@H]2CCN2C(=O)[C@H](C)N(C)C1=O [Compound 862] ([NMeL]I[NMeA][Aze][NMeT][Sar][hPhe(3-Cl-4-CF3)]P[Ac5c][NMeV][NMeD]-Piperidide; lactam N-11) | 2.7 | > 500
7 | CC[C@H](C)[C@@H]1NC(=O)[C@H](CC(C)C)N(C)C(=O)C[C@@H](C(=O)N(C)C)N(C)C(=O)[C@H]([C@@H](C)CC)N(C)C(=O)C2(CCCC2)NC(=O)[C@@H]2CCCN2C(=O)[C@H](CCc2ccc(C(F)(F)F)c(Cl)c2)NC(=O)CN(C)C(=O)[C@H](Cc2ccc(C)cc2)N(CC)C(=O)[C@@H]2CCN2C(=O)[C@H](C)N(C)C1=O [Compound 866] ([NMeL]I[NMeA][Aze][NEtPhe(4-Me)][Sar][hPhe(3-Cl-4-CF3)]P[Ac5c][NMeI][NMeD]-NMe2; lactam N-11) | 1.2 | ≤ 20
8 | CC[C@H](C)[C@@H]1NC(=O)[C@H](CC(C)C)N(C)C(=O)C[C@@H](C(=O)N2CCOCC2)N(C)C(=O)[C@H](C2CCCC2)N(C)C(=O)C2(CCCC2)NC(=O)[C@@H]2CCCN2C(=O)[C@H](CCc2ccc(C(F)(F)F)c(F)c2)NC(=O)CN(C)C(=O)[C@H](C2CCCC2)N(C)C(=O)[C@@H]2CCN2C(=O)[C@H](C)N(C)C1=O [Compound 871] ([NMeL]I[NMeA][Aze][NMeGly(cPent)][Sar][hPhe(3-F,4-CF3)]P[Ac5c][NMeGly(cPent)][NMeD]-Morpholide; lactam N-11) | 0.78 | ≤ 20
9 | CC[C@H](C)[C@@H]1NC(=O)[C@H](CC(C)C)N(C)C(=O)C[C@@H](C(=O)N2CCCCC2)N(C)C(=O)[C@H](CC(C)C)N(C)C(=O)C2(CCCC2)NC(=O)[C@@H]2C[C@@H](O)CN2C(=O)[C@H](CCc2ccc(C(F)(F)F)c(F)c2)NC(=O)CN(C)C(=O)[C@H](CC2CCCCC2)N(C)C(=O)CN(C)C(=O)CN(C)C1=O [Compound 875, (3S,9S,18S,21S,25S,28S,34S,36R)-9-(cyclohexylmethyl)-3-[2-[3-fluoro-4-(trifluoromethyl)phenyl]ethyl]-36-hydroxy-21,28-diisobutyl-7,10,13,16,22,26,29-heptamethyl-18-[(1S)-1-methylpropyl]-25-(piperidine-1-carbonyl)spiro[1,4,7,10,13,16,19,22,26,29,32-undecazabicyclo[32.3.0]heptatriacontane-31,1′-cyclopentane]-2,5,8,11,14,17,20,23,27,30,33-undecone] ([NMeL]I[Sar][Sar][NMeCha][Sar][hPhe(3-F,4-CF3)][Hyp][Ac5c][NMeL][NMeD]-Piperidide; lactam N-11) | 3.1 | > 500
10 | CC[C@H](C)[C@@H]1NC(=O)[C@H](CC(C)C)N(C)C(=O)C[C@@H](C(=O)N2CCCC2)N(C)C(=O)[C@H]([C@@H](C)CC)N(C)C(=O)C2(CCCC2)NC(=O)[C@@H]2CCCN2C(=O)[C@H](CCc2ccc(C(F)(F)F)c(Cl)c2)NC(=O)CN(C)C(=O)[C@H](Cc2ccc(C(F)(F)F)cc2)N(C)C(=O)[C@@H]2CCN2C(=O)[C@H](C)N(C)C1=O [Compound 882] ([NMeL]I[NMeA][Aze][NMePhe(4-CF3)][Sar][hPhe(3-Cl-4-CF3)]P[Ac5c][NMeI][NMeD]-Pyrrolidide; lactam N-11) | 0.47 | ≤ 20
11 | CC[C@H](C)[C@@H]1NC(=O)[C@H](CC(C)C)N(C)C(=O)C[C@@H](C)N(C)C(=O)[C@H](CC(C)C)NC(=O)C(C)(C)N(C)C(=O)[C@H](CC(C)C)NC(=O)[C@H](CCc2ccc(C(F)(F)F)c(F)c2)NC(=O)CN(C)C(=O)[C@H](CC2CCCCC2)N(C)C(=O)CN(C)C(=O)CN(C)C1=O [Compound 883] (cyclo(I[Sar][Sar][NMeCha][Sar][hPhe(3-F,4-CF3)]L[NMeAib]L[NMedβ3hAla][NMeL])) | 49 | > 500
12 | CC[C@H](C)[C@@H]1NC(=O)[C@H](CC(C)C)N(C)C(=O)C[C@@H](C(=O)N2CCCCC2)N(C)C(=O)[C@H](C2CCCCC2)N(C)C(=O)C2(CCCC2)NC(=O)[C@H](Cc2cncc(OC)c2)N(C)C(=O)[C@H](CCc2ccc(C(F)(F)F)c(Cl)c2)NC(=O)CN(C)C(=O)[C@H](CC2CCCCC2)N(C)C(=O)CN(C)C(=O)CN(C)C1=O [Compound 887] ([NMeL]I[Sar][Sar][NMeCha][Sar][hPhe(3-Cl-4-CF3)][X24][Ac5c][NMeChg][NMeD]-Piperidide; lactam N-11) | 6.2 | > 500
